Blank lines part the entries; values can stand above or below the molecule they belong to.
How the values were obtained:
[1] = molecular target: T1, Prostaglandin G/H synthase 1 (Homo sapiens, UniProt P23219); experiment: Compound was evaluated for percent inhibition of Prostaglandin G/H synthase 1 at the concentration of 0.3 uM
[2] = molecular target: T1, Prostaglandin G/H synthase 1; experiment: Compound was evaluated for the inhibition of Prostaglandin G/H synthase 1 at the concentration of 3 uM
[3] = molecular target: T2, Prostaglandin G/H synthase 2 (Homo sapiens) (UniProt P35354); experiment: Compound was evaluated for percent inhibition of Prostaglandin G/H synthase 2 at the concentration of 0.3 uM
T2 sequence (whole entry): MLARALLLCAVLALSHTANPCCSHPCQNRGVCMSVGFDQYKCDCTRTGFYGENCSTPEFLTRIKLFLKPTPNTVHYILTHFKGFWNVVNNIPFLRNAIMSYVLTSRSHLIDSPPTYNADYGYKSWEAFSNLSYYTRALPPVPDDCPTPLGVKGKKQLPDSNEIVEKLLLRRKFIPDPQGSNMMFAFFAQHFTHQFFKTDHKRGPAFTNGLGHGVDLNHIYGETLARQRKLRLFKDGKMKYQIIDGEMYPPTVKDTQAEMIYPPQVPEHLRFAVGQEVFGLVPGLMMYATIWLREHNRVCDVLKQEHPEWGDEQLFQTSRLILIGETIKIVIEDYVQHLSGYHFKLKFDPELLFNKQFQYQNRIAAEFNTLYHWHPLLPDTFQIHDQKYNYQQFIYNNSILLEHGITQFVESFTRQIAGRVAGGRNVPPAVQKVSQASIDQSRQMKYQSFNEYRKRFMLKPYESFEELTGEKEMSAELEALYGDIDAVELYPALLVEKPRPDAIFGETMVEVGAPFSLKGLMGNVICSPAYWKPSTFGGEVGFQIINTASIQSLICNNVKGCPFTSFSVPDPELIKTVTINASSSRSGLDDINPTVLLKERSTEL

[4] = molecular target: T3, Prostaglandin G/H synthase 2 (Homo sapiens, UniProt P35354); experiment: Inhibitory activity was evaluated against human Prostaglandin G/H synthase 2 was determined
T3 sequence (P35354 whole entry): T2 sequence (whole entry)

[5] = molecular target: T2, Prostaglandin G/H synthase 2 (Homo sapiens); experiment: Compound was evaluated for percent inhibition of Prostaglandin G/H synthase 2 at the concentration of 10 uM
[6] = molecular target: T1, Prostaglandin G/H synthase 1; experiment: Compound was evaluated for percent inhibition of Prostaglandin G/H synthase 1 at the concentration of 10 uM
[7] = molecular target: T1, Prostaglandin G/H synthase 1; experiment: Inhibitory activity was evaluated against human Prostaglandin G/H synthase 1 was determined

T1 sequence (P23219 whole entry): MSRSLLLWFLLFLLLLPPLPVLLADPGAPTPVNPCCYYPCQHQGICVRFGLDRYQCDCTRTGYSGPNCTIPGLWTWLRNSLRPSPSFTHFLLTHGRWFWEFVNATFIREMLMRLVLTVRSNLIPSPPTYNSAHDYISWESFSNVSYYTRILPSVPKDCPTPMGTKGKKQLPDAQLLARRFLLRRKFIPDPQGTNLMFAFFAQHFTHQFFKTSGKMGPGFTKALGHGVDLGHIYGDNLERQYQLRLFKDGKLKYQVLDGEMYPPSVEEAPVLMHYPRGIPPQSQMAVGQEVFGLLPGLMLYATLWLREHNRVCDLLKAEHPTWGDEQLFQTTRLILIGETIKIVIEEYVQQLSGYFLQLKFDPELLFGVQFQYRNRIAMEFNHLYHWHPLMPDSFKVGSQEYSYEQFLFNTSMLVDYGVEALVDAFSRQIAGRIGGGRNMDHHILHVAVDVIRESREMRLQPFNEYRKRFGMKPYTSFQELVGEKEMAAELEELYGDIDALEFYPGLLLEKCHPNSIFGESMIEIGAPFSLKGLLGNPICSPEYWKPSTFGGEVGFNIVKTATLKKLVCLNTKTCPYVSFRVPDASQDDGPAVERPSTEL

inhibition [5]: 14%
inhibition [6]: 12%
Compound: OCCN1c2ccccc2Sc2ccccc21

inhibition [5]: 14%
inhibition [6]: 25%
Compound: O=C(O)CCN1c2ccccc2Sc2ccccc21

IC50 [4]: 4000 nM
IC50 [7]: 500 nM
Compound: CC(S)CN1c2ccccc2Sc2ccccc21 (centres undefined)

IC50 [4]: 5000 nM
IC50 [7]: 1000 nM
Compound: CC(O)CN1c2ccccc2Sc2ccccc21 (centres undefined)

Continued, molecule first:

Compound: CC(C)(Oc1ccc(Cl)cc1)C(=O)NCCCN1c2ccccc2Sc2ccccc21
inhibition [1]: 13%
inhibition [2]: 17%
inhibition [3]: 44%
IC50 [4]: 1300 nM

Compound: O=C(COc1ccc(Br)cc1)NCCCN1c2ccccc2Sc2ccccc21
inhibition [3]: 15%

Compound: CCC(=O)NCCCN1c2ccccc2Sc2ccccc21
inhibition [3]: 18%

Compound: O=C(CCC1CCCCC1)NCCCN1c2ccccc2Sc2ccccc21
inhibition [3]: 15%

Compound: CC(C)(COc1ccc(Br)cc1)C(=O)NCCCN1c2ccccc2Sc2ccccc21
inhibition [1]: 12%
inhibition [2]: 19%
inhibition [3]: 34%
IC50 [4]: 21000 nM
